In publication PMC5698723, “Oxetane Grafts Installed Site‐Selectively on Native Disulfides to Enhance Protein Stability and Activity In Vivo” (Angewandte Chemie (International Ed. in English), 2017):

Experiments:
[1] = Stability of stapled cyclic peptides in GSH solution; assay type: physicochemical; settings: around 1 mM peptide in H2O, 1 mM GSH, 37 °C, 48 h, HPLC read-out (212 nm)
Protocol: 6. Stability test of stapled cyclic peptides
A 100 µL aliquot of stapled peptide (around 1 mM) in H2O was treated with 5.3 µL of a 20 mM GSH solution (to 1 mM) and the resulting mixture vortexed for 30 s and then shaken at 37 °C. After 48 h, an aliquot of each reaction mixture was analysed by HPLC [YMC-Pack Pro C18 column (5 µ, 250 mm × 10 mm), isocratic: acetonitrile+0.1% TFA /water+0.1% TFA (73- […]
(§1) 27), 15 min, λ = 212nm, flow=3.5)]. […]
(YMC-Pack Pro C18 column (5 µ, 250 mm × 10 mm), isocratic: acetonitrile+0.1% TFA […]
(§2) /water+0.1% TFA (73-27), 15 min, λ = 212nm, flow=3.5)).

[2] = Stability of stapled cyclic peptides in human plasma; assay type: in vitro ADME; settings: around 1 mM peptide in H2O (100 µL) + 1 µL reconstituted human plasma, 37 °C, 48 h, HPLC read-out (212 nm)
Protocol: 6. Stability test of stapled cyclic peptides […]
as §1
A 100 µL aliquot of stapled peptide (around 1 mM) in H2O was treated with 1 µL of
reconstituted human plasma (Sigma-Aldrich) and the resulting mixture vortexed for 30 s and
then shaken at 37 °C. After 48 h, an aliquot of each reaction mixture was analysed by HPLC
(YMC-Pack Pro C18 column (5 µ, 250 mm × 10 mm), isocratic: acetonitrile+0.1% TFA
as §2

Structure (SMILES) | stability in the presence of glutathione (GSH) [1] | stability in human plasma [2]
C[C@H](N)C(=O)NCC(=O)N[C@H]1CSCC2(COC2)CSC[C@@H](C(=O)O)NC(=O)[C@H](CO)NC(=O)[C@H]([C@@H](C)O)NC(=O)[C@H](Cc2ccccc2)NC(=O)[C@H]([C@@H](C)O)NC(=O)[C@H](CCCCN)NC(=O)[C@H](Cc2c[nH]c3ccccc23)NC(=O)[C@H](Cc2ccccc2)NC(=O)[C@H](Cc2ccccc2)NC(=O)[C@H](CC(N)=O)NC(=O)[C@H](CCCCN)NC1=O [compound 3] | remain intact | remain intact
C[C@@H](O)[C@@H]1NC(=O)[C@H](CCCCN)NC(=O)[C@@H](Cc2c[nH]c3ccccc23)NC(=O)[C@H](Cc2ccccc2)NC(=O)[C@@H](NC(=O)[C@H](N)Cc2ccccc2)CSCC2(COC2)CSC[C@@H](C(=O)N[C@H](CO)[C@@H](C)O)NC1=O [compound 5] | remain intact | remain intact
